pIC50: −log10 of the molar value. Like-named read-outs stand apart in the source and are kept apart here.
How the values were obtained:
CSF1R [1] = biological target: T1, CSF1R (Homo sapiens, UniProt P07333); test: Cellular CSF1R inhibition ELISA (p-CSF1R, M-CSF-induced) using THP-1 cells; type: cell-based; parameters: THP-1 cells act as a model for human monocytes; endogenous in cells; host or cells: THP-1
Description: The normal proto-oncogene c-fms encodes the macrophage growth factor (M-CSF, also known as CSF1) receptor involved in growth, survival, and differentiation along the monocyte-macrophage lineage. THP-1 cells act as a model for human monocytes. It confirms that an increased phosphorylation of CSF1R (p-CSF1R) can be observed, when induced by CSF1R ligand, CSF1.
The THP-1 cells should be maintained from 5×10^5 to 1×10^6 cells/ml in the cell culture flask. After centrifugation, the supernatant is aspirated. The cell pellet is re-suspended with pre-warmed growth medium (RPMI1640, 10% FBS, 0.05 mM 2-Mercaptoethanol) and cells are separated by pipetting 6 times up and down with a 10 ml serological pipette. The cell suspension has to be diluted to a final concentration of 2×10^5 cells per 80 μl with pre-warmed growth medium. 80 μl of cell suspension is added to all wells of plates. Cell-plates are incubated at 37° C./5% CO2. Dissolve compound in 100% DMSO to make 10 mM stock solutions (Aliquots stored in the Nitrogen Cabinet). Dilute 10 mM compounds solutions for 2-fold in 100% DMSO to get 5 mM solutions (10 μl+10 μl DMSO), and then make a 3-fold serial dilution (10 μl+20 μl DMSO) for 10 doses. For reference compounds: Dilute 10 mM compounds solutions for 20-fold in 100% DMSO to get 0.5 mM solutions (2 μl+38 μl DMSO), and then make a 3-fold serial dilution (10 μl+20 μl DMSO) for 10 doses. Transfer 2 μl diluted compounds to 198 μl medium to get solution of 50 μM concentration at top point for compounds and 5 μM for reference compounds. Then transfer 20 μl cpd solution into assay plate (Duplicate wells). The plate is incubated at 37° C./5% CO2 for 24 h. The final concentration of DMSO in all wells is […]. Reconstitute human M-CSF at 50 μg/ml in sterile water. (Aliquots stored in −80° C.). 1:1000 dilute human M-CSF by fresh medium to 50 ng/ml. After 24 h compounds treatment, transfer 25 μl diluted human M-CSF (50 ng/ml) to cell plate according to the plate map. The final concentration of human M-CSF in all wells is 10 ng/ml.
The plates is incubated at 37° C./5% CO2 for 5 min. In the beginning the appropriate amount of lysis buffer complete (100 μL/well) is prepared and stored on ice. After 5 min human M-CSF stimulation, wash plates once with 300 μL ice cold PBS. Then 100 μl lysis buffer is added to each well. The plate is shacked for 40 min at 4° C. Plates can now be stored at −20° C. After equilibrate the micro-well strips at room temperature, break off the required number of micro-wells. Place the micro-wells in the strip holder. Unused micro-wells must be resealed and stored at 4° C. immediately. Add 90 μl of cell lysate to the appropriate well. Seal with tape and press firmly onto top of micro-wells. Incubate the plate for 2 h at 37° C. Gently remove the tape and wash wells 4 times with 1× Wash Buffer, 200 μl each time for each well. Add 100 μl of reconstituted Detection Antibody (green color) to each well. Seal with tape and incubate the plate at 37° C. for 1 h. Repeat wash procedure. Add 100 μl of reconstituted HRP-Linked secondary antibody to each well. Seal with tape and incubate the plate for 30 min at 37° C. Repeat wash procedure. Add 100 μl of TMB Substrate to each well. Seal with tape and incubate the plate for 10 min at 37° C. or 30 min at 25° C. Calculations and Formulas: The following calculations and formulas are used for data analysis using XL Fit software: The curve fitting was made using the Sigmoidal Dose-Response Model (Fit model, 205).

CSF1R [2] = biological target: T1, CSF1R; test: KINOMEscan competition binding assay for CSF1R; parameters: DNA tag for qPCR (not a peptide); host or cells: E. coli/T7 phage or HEK-293; conditions: @ 0.1 uM
Description: KINOMEscan™ is based on a competition binding assay that quantitatively measures the ability of a compound to compete with an immobilized, active-site directed ligand. The assay is performed by combining three components: DNA-tagged kinase; immobilized ligand; and a test compound. The ability of the test compound to compete with the immobilized ligand is measured via quantitative PCR of the DNA tag.
E. coli were grown to log-phase and infected with T7 phage and incubated with shaking at 32° C. until lysis. The lysates were centrifuged and filtered to remove cell debris. The remaining kinases were produced in HEK-293 cells and subsequently tagged with DNA for qPCR detection. Streptavidin-coated magnetic beads were treated with biotinylated small molecule ligands for 30 minutes at room temperature to generate affinity resins for kinase assays. The liganded beads were blocked with excess biotin and washed with blocking buffer (SeaBlock (Pierce), 1% BSA, 0.05% Tween 20, 1 mM DTT) to remove unbound ligand and to reduce non-specific binding. Binding reactions were assembled by combining kinases, liganded affinity beads, and test compounds in 1× binding buffer (20% SeaBlock, 0.17×PBS, 0.05% Tween 20, 6 mM DTT). Test compounds were prepared as 111× stocks in 100% DMSO. Kds were determined using an 11-point 3-fold compound dilution series with three DMSO control points. All compounds for Kd measurements are distributed by acoustic transfer (non-contact dispensing) in 100% DMSO. The compounds were then diluted directly into the assays such that the final concentration of DMSO was 0.9%. In case of % inhibition, test compounds were prepared as 40× stocks in 100% DMSO and directly diluted into the assay. All reactions performed in polypropylene 384-well plate. Each was a final volume of 0.02 ml. The assay plates were incubated at room temperature with shaking for 1 hour and the affinity beads were washed with wash buffer (1×PBS, 0.05% Tween 20). The beads were then re-suspended in elution buffer (1×PBS, 0.05% Tween 20, 0.5 μM non-biotinylated affinity ligand) and incubated at room temperature with shaking for 30 minutes. The kinase concentration in the eluates was measured by qPCR.
The CSF1R kinase binding activity results are shown in tables 1 (Kd) and 2 (percent inhibition at a concentration of 0.1 uM of compound to be tested).
Binding constants (Kds) were calculated with a standard dose-response curve using the Hill equation: […]
The Hill Slope was set to −1.
Curves were fitted using a non-linear least square fit with the Levenberg-Marquardt algorithm.
Binding % inhibition were calculated with as below:
[formula] • negative control=DMSO (100% Ctrl) • positive control=control compound (0% Ctrl)

[3] = read-out: CSF1R kinase binding activity, Percent (%) inhibition
[4] = read-out: CSF1R kinase binding activity, Range

T1 sequence (P07333 20-972): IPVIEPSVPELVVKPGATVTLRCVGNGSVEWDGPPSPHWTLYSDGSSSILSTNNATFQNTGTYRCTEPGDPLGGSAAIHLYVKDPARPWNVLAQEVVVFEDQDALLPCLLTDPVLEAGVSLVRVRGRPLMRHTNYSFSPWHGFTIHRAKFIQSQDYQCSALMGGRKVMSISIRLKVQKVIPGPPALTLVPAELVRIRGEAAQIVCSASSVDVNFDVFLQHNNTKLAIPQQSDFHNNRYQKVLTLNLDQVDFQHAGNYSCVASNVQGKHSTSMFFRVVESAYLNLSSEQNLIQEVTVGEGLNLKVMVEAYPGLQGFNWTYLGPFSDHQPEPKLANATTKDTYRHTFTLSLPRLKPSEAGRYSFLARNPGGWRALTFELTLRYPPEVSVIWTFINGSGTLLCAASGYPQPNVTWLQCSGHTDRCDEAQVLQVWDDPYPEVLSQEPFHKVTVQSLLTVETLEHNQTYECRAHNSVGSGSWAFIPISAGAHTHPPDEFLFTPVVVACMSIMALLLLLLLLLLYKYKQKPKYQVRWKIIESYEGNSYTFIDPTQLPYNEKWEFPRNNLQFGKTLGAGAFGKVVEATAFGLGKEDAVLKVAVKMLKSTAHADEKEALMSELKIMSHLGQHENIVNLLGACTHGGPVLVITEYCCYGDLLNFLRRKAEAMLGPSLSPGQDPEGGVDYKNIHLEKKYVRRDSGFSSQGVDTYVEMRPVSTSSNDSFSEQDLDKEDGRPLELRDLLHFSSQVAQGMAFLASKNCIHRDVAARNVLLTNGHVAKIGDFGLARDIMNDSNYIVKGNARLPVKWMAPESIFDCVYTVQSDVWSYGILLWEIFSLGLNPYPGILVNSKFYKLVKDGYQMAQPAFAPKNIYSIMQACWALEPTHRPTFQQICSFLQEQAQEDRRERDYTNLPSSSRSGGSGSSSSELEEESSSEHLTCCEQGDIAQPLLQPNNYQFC

Compound | pIC50 (CSF1R [1]) | inhibition at 0.1 µM (CSF1R [2]; [3]) | inhibition at 0.1 µM (CSF1R [2]; [4])
COc1cc2nccc(Oc3ccc(NC(=O)c4nn(C5CCCC5)cc4OCC(F)(F)F)cn3)c2cc1OC [Compound 131] | ≤ 6.00 | 21% | < 50%
COc1cc2nccc(Oc3ccc(NC(=O)c4nn(C5CCNC5)cc4OCC(F)(F)F)cn3)c2cc1OC (stereo not drawn) [Compound 132] | ≤ 6.00 | 16% | < 50%
COc1cc2nccc(Oc3ccc(NC(=O)c4nn(C5CCN(C)C5)cc4OCC(F)(F)F)cn3)c2cc1OC (stereo not drawn) [Compound 133] | ≤ 6.00 | 9% | < 50%
COc1cc2nccc(Oc3ccc(NC(=O)c4nn(CC5COC5)cc4OCC(F)(F)F)cn3)c2cc1OC [Compound 134] | ≤ 6.00 | 18% | < 50%
COc1cc2nccc(Oc3ccc(NC(=O)c4nn(CCN)cc4OCC(F)(F)F)cn3)c2cc1OC [Compound 135] | ≤ 6.00 | 4% | < 50%
COc1cc2nccc(Oc3ccc(NC(=O)c4nn(CC(C)O)cc4OCC(F)(F)F)cn3)c2cc1OC (stereo not drawn) [Compound 136] | ≤ 6.00 | 23% | < 50%
CNCCn1cc(OCC(F)(F)F)c(C(=O)Nc2ccc(Oc3ccnc4cc(OC)c(OC)cc34)nc2)n1 [Compound 137] | ≤ 6.00 | 6% | < 50%
COc1cc2nccc(Oc3ccc(NC(=O)c4nn(C5CCOC5)cc4OCC(F)(F)F)cn3)c2cc1OC (stereo not drawn) [Compound 138] | ≤ 6.00 | 9% | < 50%
CCCn1cc(OCC(F)(F)F)c(C(=O)Nc2ccc(Oc3ccnc4cc(OC)c(OC)cc34)nc2)n1 [Compound 139] | ≤ 6.00 | 37% | < 50%
CCCn1cc(OCCNC)c(C(=O)Nc2ccc(Oc3ccnc4cc(OC)c(OC)cc34)cn2)n1 [Compound 140] | ≤ 6.00 | 38% | < 50%
CNCCOc1cn(C2CC2)nc1C(=O)Nc1ccc(Oc2ccnc3cc(OC)c(OC)cc23)cn1 [Compound 141] | ≤ 6.00 | 23% | < 50%
COc1cc2nccc(Oc3ccc(NC(=O)c4nn(C5CC5)cc4NCCC(F)(F)F)nc3)c2cc1OC [Compound 142] | > 6.30 | 92% | ≥ 80%
COc1cc2nccc(Oc3ccc(NC(=O)c4nn(C5CC5)cc4OCC4COC4)nc3)c2cc1OC [Compound 143] | > 6.30 | 95% | ≥ 80%
COc1cc2nccc(Oc3ccc(NC(=O)c4nn(C5CC5)cc4OCC4CNC4)nc3)c2cc1OC [Compound 144] | ≤ 6.00 | 73% | 50 to 80%
COc1cc2nccc(Oc3ccc(NC(=O)c4nn(C5CC5)cc4NCC(F)(F)F)nc3)c2cc1OC [Compound 145] | > 6.30 | 94% | ≥ 80%
COc1cc2nccc(Oc3ccc(NC(=O)c4nn(C5CC5)cc4NCCC(F)(F)F)nn3)c2cc1OC [Compound 146] | ≤ 6.00 | 43% | < 50%
COc1cc2nccc(Oc3ccc(NC(=O)c4nn(C5CC5)cc4OC(C)C)nn3)c2cc1OC [Compound 147] | 6.00 to 6.30 | 85% | ≥ 80%
COc1cc2nccc(Oc3ccc(NC(=O)c4nn(C5CC5)cc4NCC(F)(F)F)nn3)c2cc1OC [Compound 148] | ≤ 6.00 | 60% | 50 to 80%
COc1cc2nccc(Oc3ccc(NC(=O)c4nn(C5CC5)cc4OCC4CCC4)nn3)c2cc1OC [Compound 149] | ≤ 6.00 | 76% | 50 to 80%
COCCOc1cn(CC(C)O)nc1C(=O)Nc1ccc(Oc2ccnc3cc(OC)c(OC)cc23)cn1 (stereo not drawn) [Compound 150] | ≤ 6.00 | 74% | 50 to 80%
COc1cc2nccc(Oc3ccc(NC(=O)c4nn(CC(C)O)cc4OC(C)C)nc3)c2cc1OC (stereo not drawn) [Compound 151] | > 6.30 | 97% | ≥ 80%
COc1cc2nccc(Oc3ccc(NC(=O)c4nn(CC(C)O)cc4OCCF)nc3)c2cc1OC (stereo not drawn) [Compound 152] | > 6.30 | 96% | ≥ 80%
COc1cc2nccc(Oc3ccc(NC(=O)c4nn(CCOC5CC5)cc4OCC(F)(F)F)nc3)c2cc1OC [Compound 153] | > 6.30 | 95% | ≥ 80%

Reference: patent US12162858B2, “Quinoline derivatives as inhibitors of AXL/MER RTK and CSF1R” (QURIENT CO., LTD., priority 2018, dated 2024)
